# Results taken from ChEMBL document CHEMBL1148255, “Facile synthesis of fused 1,2,4-triazolo[1,5-c]pyrimidine derivatives as human adenosine A3 receptor ligands” (Bioorg Med Chem Lett, 2004).
# Target: Adenosine receptor A2a (Homo sapiens, UniProt P29274)
# Test: biochemical
# Sequence of Adenosine receptor A2a (P29274 whole entry): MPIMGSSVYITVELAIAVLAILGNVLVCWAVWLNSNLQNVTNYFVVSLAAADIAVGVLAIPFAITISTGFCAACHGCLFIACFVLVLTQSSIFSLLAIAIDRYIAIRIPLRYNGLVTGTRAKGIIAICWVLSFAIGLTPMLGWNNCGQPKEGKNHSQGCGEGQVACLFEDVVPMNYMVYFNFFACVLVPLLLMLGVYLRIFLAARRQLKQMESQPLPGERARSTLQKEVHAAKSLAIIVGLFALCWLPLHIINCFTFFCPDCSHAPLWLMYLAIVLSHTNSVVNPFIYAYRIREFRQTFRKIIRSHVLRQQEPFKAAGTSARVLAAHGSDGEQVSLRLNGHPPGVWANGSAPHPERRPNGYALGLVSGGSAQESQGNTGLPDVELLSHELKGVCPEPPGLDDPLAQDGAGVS
row,IC50 [nM],Compound
2,> 10000,CCCCc1nc2[nH]cnc2c2nc(-c3ccc(C(F)(F)F)cc3)nn12
